Results taken from patent EP0334853B1, “SOFT STEROIDS HAVING ANTI-INFLAMMATORY ACTIVITY” (BODOR, Nicholas S., priority 1987, dated 1989).

The compounds below were run on skin of the flexor surface of the forearm (assay: Topical vasoconstriction test (blanching, method of McKenzie and Stoughton)). Details: 0.03M solution in acetone/isopropylmyristate 90:10, 0.05 milliliter on 1 cm patch, occluded; patch removed after about six hours, blanching score one hour later; average of duplicate, except entries marked ** (duplicate experiment not conducted).
Type: in vivo
Method: TOPICAL VASOCONSTRICTION TEST
A topical vasoconstriction test was conducted using the general method of McKenzie, A.W. and R.B. Stoughton, Arch. Dermatol, 86, (1962), 608-10. The topical vasoconstriction test was done in order to evaluate the anti-inflammatory potency of the novel compounds of the present invention. A 0.03M solution of the test compound in acetone/isopropylmyristate 90:10 volume/volume was prepared. An aliquot of 0.05 milliliter was applied to a circular patch, one centimeter in diameter, which was in turn applied against the skin of the flexor surface of the forearm (previously cleansed with ethanol 95% and dried). This application was occluded with a water-impervious film. The patch was removed after about six hours and the blanching score was evaluated one hour later. Two control compounds were used at the same time and under the same conditions. The control compounds were hydrocortisone 17-valerate and cortienic acid 17-ethylcarbonate chloromethylester. The experiment was made in duplicate and the average estimation values for the blanching activity are reported in Table I. The left column of Table I indicates the 17α-substituent of the structure: [drawing 44]

Question: With `CCO[C@]1(C(=O)OCCl)CC[C@H]2[C@@H]3CCC4=CC(=O)CC[C@]4(C)[C@H]3[C@@H](O)C[C@@]21C` [-OCH₂H₅, chloromethyl 11β-hydroxy-17α-ethoxyandrost-4-en-3-one-17β-carboxylate] as the compound, how does the “BLANCHING STUDIES Value (average estimation values for the blanching activity)” value (“BLANCHING STUDIES Value” below) read?
Answer: 0.75

Question: With `CCCO[C@]1(C(=O)OCCl)CC[C@H]2[C@@H]3CCC4=CC(=O)CC[C@]4(C)[C@H]3[C@@H](O)C[C@@]21C` [-OC₃H₇, Chloromethyl 11β-hydroxy-17α-propoxyandrost-4-en-3-one-17β-carboxylate] as the compound, how does the “BLANCHING STUDIES Value” value read?
Answer: 1 **

Question: Which “BLANCHING STUDIES Value” value does the source give for `CCCCO[C@]1(C(=O)OCCl)CC[C@H]2[C@@H]3CCC4=CC(=O)CC[C@]4(C)[C@H]3[C@@H](O)C[C@@]21C` [-OC₄H₉, Chloromethyl 17α-butoxy-11β-hydroxyandrost-4-en-3-one-17β-carboxylate] here?
Answer: 0.5

Question: Which “BLANCHING STUDIES Value” value does the source give for `CCOC(=O)O[C@]1(C(=O)OCCl)CC[C@H]2[C@@H]3CCC4=CC(=O)CC[C@]4(C)[C@H]3[C@@H](O)C[C@@]21C` [carbonate, cortienic acid 17-ethylcarbonate chloromethylester, reference compound] here?
Answer: 1.75

Question: “hydrocortisone 17-valerate [reference compound]” was tested. Which “BLANCHING STUDIES Value” value did it give?
Answer: 1.5

Same assay, conditions: previous study, no details given

Question: How did the “activity (blanching), determined in a previous study” value turn out when `CO[C@]1(C(=O)OCCl)CC[C@H]2[C@@H]3CCC4=CC(=O)CC[C@]4(C)[C@H]3[C@@H](O)C[C@@]21C` [-OCH₃, chloromethyl 11β-hydroxy-17α-methoxyandrost-4-en-3-one-17β-carboxylate] was run?
Answer: * The 17-methoxy homologue was determined in a previous study to have low activity.
